The record followed here is patent publication US8906925B2, “Pyrido[4,3-B]indoles containing rigid moieties” (Medivation Technologies, Inc., priority 2008, dated 2014).

Structures are written as SMILES. Where two headings read alike, the source gives them in different places.

One test deals with histamine receptor H1 (Homo sapiens, UniProt P35367). The experiment in a line: Histamine H1 radioligand binding ([3H]Pyrilamine). As to conditions: read-out: Histamine Binding (1 μM) H1, percent inhibition of specific binding, 1 μM. On the procedure:
To evaluate in radioligand binding assays the activity of compounds of the invention, human recombinant histamine H1 receptor expressed in Chinese hamster ovary (CHO) cells (De Backer, M. D. et al., Biochem. Biophys. Res. Comm. 197(3):1601, 1993) in a modified Tris-HCl buffer (50 mM Tris-HCl, pH 7.4, 2 mM MgCl2, 100 mM NaCl, 250 mM Sucrose) was used. Compounds of the invention were incubated with 1.2 nM [^3H]Pyrilamine for 180 min. at 25° C. Non-specific binding was estimated in the presence of 1 μM pyrilamine. Receptor proteins were filtered and washed, the filters were then counted to determine [^3H]Pyrilamine specifically bound. Compounds were screened at 1 μM or lower, using 1% DMSO as vehicle. Biochemical assay results are presented as the percent inhibition of specific binding in Table 8.

Test [1] has as its target human dopamine D2L receptor (Homo sapiens, UniProt P14416). Kind of test: Dopamine D2L radioligand binding ([3H]Spiperone). To be noted: compound at 1 μM. From the text:
Non-specific binding was estimated in the presence of […] Haloperidol. Receptor proteins were filtered and washed, the filters were then counted to determine [^3H]Spiperone specifically bound. […] Biochemical assay results are presented as the percent inhibition of specific binding in Table 9.

The mark [2] stands for this setting: […] [3H]Spiperone, read-out: Inhibition of ligand binding, Dopamine D2L (percent inhibition of specific binding).
[3] abbreviates: percent inhibition of specific binding, read-out: Inhibition of ligand binding, Dopamine D2L.

Chain of histamine receptor H1 (P35367 whole entry): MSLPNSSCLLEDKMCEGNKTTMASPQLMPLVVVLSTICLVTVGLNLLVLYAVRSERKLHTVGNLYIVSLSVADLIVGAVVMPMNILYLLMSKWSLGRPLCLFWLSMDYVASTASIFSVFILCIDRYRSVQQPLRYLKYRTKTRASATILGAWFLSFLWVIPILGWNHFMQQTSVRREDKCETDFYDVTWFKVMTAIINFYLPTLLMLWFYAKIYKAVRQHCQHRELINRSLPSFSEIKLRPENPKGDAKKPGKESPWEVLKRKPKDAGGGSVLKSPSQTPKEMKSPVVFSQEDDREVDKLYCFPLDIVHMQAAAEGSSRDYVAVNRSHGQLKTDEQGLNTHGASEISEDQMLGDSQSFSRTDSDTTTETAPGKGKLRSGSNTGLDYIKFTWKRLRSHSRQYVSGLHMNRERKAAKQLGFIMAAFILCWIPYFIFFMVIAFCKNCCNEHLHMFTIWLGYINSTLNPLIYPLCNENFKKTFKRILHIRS
Chain of human dopamine D2L receptor (P14416 whole entry): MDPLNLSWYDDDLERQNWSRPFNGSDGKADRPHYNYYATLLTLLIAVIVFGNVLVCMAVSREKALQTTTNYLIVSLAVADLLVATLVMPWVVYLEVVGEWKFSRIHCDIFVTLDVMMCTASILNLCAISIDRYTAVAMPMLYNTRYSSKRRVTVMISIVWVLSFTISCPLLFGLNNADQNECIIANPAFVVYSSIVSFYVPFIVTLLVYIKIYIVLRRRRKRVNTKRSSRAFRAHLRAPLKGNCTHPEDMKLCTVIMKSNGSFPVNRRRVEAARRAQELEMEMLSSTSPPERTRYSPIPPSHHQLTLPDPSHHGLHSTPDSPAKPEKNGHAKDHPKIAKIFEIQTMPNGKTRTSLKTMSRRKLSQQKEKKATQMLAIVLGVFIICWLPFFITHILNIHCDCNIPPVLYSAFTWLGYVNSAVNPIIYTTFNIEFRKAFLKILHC

Consider `Cc1ccc2c(c1)c1c(n2C#Cc2ccsc2)CCN(C)C1` [Compound No. 491, 2,8-dimethyl-5-(thiophen-3-ylethynyl)-2,3,4,5-tetrahydro-1H-pyrido[4,3-b]indole], for which the figures for the inhibition at 1 µM (on histamine receptor H1; in test [1] (setting [2])) were 52% and 82%, respectively.
For `COc1ccc(/C(F)=C(/c2ccc(OC)nc2)n2c3c(c4cc(C)ccc42)CN(C)CC3)cn1` [compound 420, (E)-5-(2-fluoro-1,2-bis(6-methoxypyridin-3-yl)vinyl)-2,8-dimethyl-2,3,4,5-tetrahydro-1H-pyrido[4,3-b]indole], the inhibition at 1 µM on histamine receptor H1 is 13%; in test [1] (setting [2]), 29%.
The matching figures for `CSc1cccc(/C(C)=C/n2c3c(c4cc(C)ccc42)CN(C)CC3)c1` [Compound No. 474, (E)-2,8-dimethyl-5-(2-(3-(methylthio)phenyl)prop-1-enyl)-2,3,4,5-tetrahydro-1H-pyrido[4,3-b]indole]: 98% and 53%.
With `C/C(=C\n1c2c(c3cc(C)ccc31)CN(C)[C@H](C)C2)c1ccncc1` [compound 390, (R,E)-2,3,8-trimethyl-5-(2-(pyridin-4-yl)prop-1-enyl)-2,3,4,5-tetrahydro-1H-pyrido[4,3-b]indole], the inhibition at 1 µM was determined as 49% at histamine receptor H1 and 97% in test [1] (setting [2]).
For `C/C(=C/n1c2c(c3cc(Cl)ccc31)CN(C)CC2)C1CCCCC1` [Compound 369, (Z)-8-chloro-5-(2-cyclohexylprop-1-enyl)-2-methyl-2,3,4,5-tetrahydro-1H-pyrido[4,3-b]indole] the same measures were 29% and 64%.
In the case of `C=CCN1CCc2c(c3cc(C)ccc3n2/C=C(\C)c2ccncc2)C1` [compound 405, (E)-2-allyl-8-methyl-5-(2-(pyridin-4-yl)prop-1-enyl)-2,3,4,5-tetrahydro-1H-pyrido[4,3-b]indole], the results for the inhibition at 1 µM (on histamine receptor H1; in test [1] (setting [2])) were 67% and 88%, respectively.
The matching figures for `CN1CCc2c(c3cc(Cl)ccc3n2CC(O)(c2ccccc2)c2ccccc2)C1` [Compound No. 466, 2-(8-chloro-2-methyl-3,4-dihydro-1H-pyrido[4,3-b]indol-5(2H)-yl)-1,1-diphenylethanol]: 10% and 54%.
For `C/C(=C\n1c2c(c3cc(C)ccc31)CNCC2)c1cc[n+](C)cc1` [Compound No. 471, (E)-1-methyl-4-(1-(8-methyl-3,4-dihydro-1H-pyrido[4,3-b]indol-5(2H)-yl)prop-1-en-2-yl)pyridinium], the inhibition at 1 µM (at histamine receptor H1; in test [1] (setting [2])) was 2% throughout.
With `C/C(=C\n1c2c(c3cc(Cl)ccc31)CN(CCC(C)(C)O)CC2)c1ccc(F)cc1` [compound 414, (E)-4-(8-chloro-5-(2-(4-fluorophenyl)prop-1-enyl)-3,4-dihydro-1H-pyrido[4,3-b]indol-2(5H)-yl)-2-methylbutan-2-ol], the inhibition at 1 µM at histamine receptor H1 amounted to 61%; in test [1] (setting [2]) it was 100%.
Consider `CNC(=O)c1cccc(/C(C)=C/n2c3c(c4cc(C)ccc42)CN(C)CC3)c1` [Compound No. 472, (E)-3-(1-(2,8-dimethyl-3,4-dihydro-1H-pyrido[4,3-b]indol-5(2H)-yl)prop-1-en-2-yl)-N-methylbenzamide], for which the inhibition at 1 µM on histamine receptor H1 was 21%; in test [1] (setting [2]) it was 53%.
As for `C=C(Cn1c2c(c3cccc(F)c31)CN(C)CC2)c1ccncc1` [Compound No. 363, 6-fluoro-2-methyl-5-(2-(pyridin-4-yl)allyl)-2,3,4,5-tetrahydro-1H-pyrido[4,3-b]indole], the inhibition at 1 µM at histamine receptor H1 turned out to be 62%; in test [1] (setting [2]), 53%.
The matching figures for `CCCCNc1ccc2c(c1)c1c(n2/C=C(\C)c2ccncc2)CCN(C)C1` [compound 444, (E)-N-butyl-2-methyl-5-(2-(pyridin-4-yl)prop-1-enyl)-2,3,4,5-tetrahydro-1H-pyrido[4,3-b]indol-8-amine]: -13% and 36%.
For `COc1ccc(/C(C)=C/n2c3c(c4cc(C)ccc42)CN(C)CC3)cn1` [compound 441, (E)-5-(2-(6-methoxypyridin-3-yl)prop-1-enyl)-2,8-dimethyl-2,3,4,5-tetrahydro-1H-pyrido[4,3-b]indole] the same measures were 91% and 64%.
For `C/C(=C\n1c2c(c3cc(C)ccc31)CN(C)CC2)c1ccc(C(=O)N(C)C)cc1` [compound 436] the same measures were 12% and 69%.
In the case of `C/C(=C\n1c2c(c3cc(C)ccc31)CN(C)CC2)c1cnc(C)cn1` [compound 386, (E)-2,8-dimethyl-5-(2-(5-methylpyrazin-2-yl)prop-1-enyl)-2,3,4,5-tetrahydro-1H-pyrido[4,3-b]indole], the results for the inhibition at 1 µM (at histamine receptor H1; in test [1] (setting [2])) were 8% and 25%, respectively.
The matching figures for `Cc1ccc2c(c1)c1c(n2C=C(c2ccccc2)c2ccccc2)CCN(C)C1` [compound 409, 5-(2,2-diphenylvinyl)-2,8-dimethyl-2,3,4,5-tetrahydro-1H-pyrido[4,3-b]indole]: 18% and 54%.
For `C/C(=C\n1c2c(c3cc(C)ccc31)CNCC2)c1ccncc1` [compound 401, (E)-8-methyl-5-(2-(pyridin-4-yl)prop-1-enyl)-2,3,4,5-tetrahydro-1H-pyrido[4,3-b]indole] the same measures were 8% and 57%.
The matching figures for `CSc1ccc(/C(C)=C/n2c3c(c4cc(C)ccc42)CN(C)CC3)cc1` [Compound No. 459, (E)-2,8-dimethyl-5-(2-(4-(methylthio)phenyl)prop-1-enyl)-2,3,4,5-tetrahydro-1H-pyrido[4,3-b]indole]: 53% and 71%.
Turning to `CC(C)=C(Cn1c2c(c3cc(Cl)ccc31)CN(C)CC2)c1ccncc1` [Compound No. 357, 8-chloro-2-methyl-5-(3-methyl-2-(pyridin-4-yl)but-2-enyl)-2,3,4,5-tetrahydro-1H-pyrido[4,3-b]indole], the inhibition at 1 µM on histamine receptor H1 is 61%; in test [1] (setting [2]) it was 14%.
Turning to `COc1cccc2c3c(n(CC(C)(O)c4ccncc4)c12)CCN(C)C3` (centres unmarked) [Compound 343, 1-(6-methoxy-2-methyl-3,4-dihydro-1H-pyrido[4,3-b]indol-5(2H)-yl)-2-(pyridin-4-yl)propan-2-ol], the inhibition at 1 µM at histamine receptor H1 amounted to 22%; in test [1] (setting [3]) it was 9%.
Consider `C/C(=C\n1c2c(c3cc(C)ccc31)CN(C)CC2)c1cncnc1` [Compound 293, (E)-2,8-dimethyl-5-(2-(pyrimidin-5-yl)prop-1-enyl)-2,3,4,5-tetrahydro-1H-pyrido[4,3-b]indole], for which the inhibition at 1 µM on histamine receptor H1 stood at 9%; in test [1] (setting [3]), 31%.
Turning to `C/C(=C\n1c2c(c3cc(Cl)ccc31)CN(C)CC2)c1cnc(C)cn1` [compound 385, (E)-8-chloro-2-methyl-5-(2-(5-methylpyrazin-2-yl)prop-1-enyl)-2,3,4,5-tetrahydro-1H-pyrido[4,3-b]indole], the figures for the inhibition at 1 µM (at histamine receptor H1; in test [1] (setting [2])) were 68% and 51%, respectively.
In the case of `CC(=O)N(C)c1ccc2c(c1)c1c(n2/C=C(\C)c2ccc(F)cc2)CCN(C)C1` [compound 443, (E)-N-(5-(2-(4-fluorophenyl)prop-1-enyl)-2-methyl-2,3,4,5-tetrahydro-1H-pyrido[4,3-b]indol-8-yl)-N-methylacetamide], the inhibition at 1 µM was -5% at histamine receptor H1 and 92% in test [1] (setting [2]).
Regarding `C/C(=C\n1c2c(c3cc(C)ccc31)CN(CC(F)(F)F)CC2)c1ccncc1` [Compound 291, (E)-8-methyl-5-(2-(pyridin-4-yl)prop-1-enyl)-2-(2,2,2-trifluoroethyl)-2,3,4,5-tetrahydro-1H-pyrido[4,3-b]indole], the inhibition at 1 µM on histamine receptor H1 was -4%; in test [1] (setting [3]), 0%.
For `Cc1ccc2c(c1)c1c(n2C#Cc2ccncc2)CCN(C)C1` [Compound No. 495, 2,8-dimethyl-5-(pyridin-4-ylethynyl)-2,3,4,5-tetrahydro-1H-pyrido[4,3-b]indole], the inhibition at 1 µM came out at 52% at histamine receptor H1 and 58% in test [1] (setting [2]).
For the compound `C/C(=C\n1c2c(c3cc(C)ccc31)CN(CCCO)CC2)c1ccncc1` [Compound 288, (E)-3-(8-methyl-5-(2-(pyridin-4-yl)prop-1-enyl)-3,4-dihydro-1H-pyrido[4,3-b]indol-2(5H)-yl)propan-1-ol], the inhibition at 1 µM on histamine receptor H1 was 25%; in test [1] (setting [3]), 92%.
On to `Cc1ccc2c(c1)c1c(n2/C=C(\c2ccccc2)c2ccncc2)CCN(C)C1` [compound 455, (E)-2,8-dimethyl-5-(2-phenyl-2-(pyridin-4-yl)vinyl)-2,3,4,5-tetrahydro-1H-pyrido[4,3-b]indole], for which the inhibition at 1 µM was determined as 13% at histamine receptor H1 and 56% in test [1] (setting [2]).
In the case of `C/C(=C\c1ccccc1)n1c2c(c3cc(C)ccc31)CN(C)CC2` [compound 428, (E)-2,8-dimethyl-5-(1-phenylprop-1-en-2-yl)-2,3,4,5-tetrahydro-1H-pyrido[4,3-b]indole], the inhibition at 1 µM on histamine receptor H1 came out at 97%; in test [1] (setting [2]), 57%.

Usually inhibition stands for the change of the read-out against control, counted positive when it falls.
